Experimental data taken from article PMC9695592, “Phenotypic Evaluation of Nucleoside Analogues against Trypanosoma cruzi Infection: In Vitro and In Vivo Approaches” (Molecules, 2022).
Like-named read-outs stand apart in the source and are kept apart here.

What was measured:
[1] = tested on: intracellular forms of T. cruzi (Y strain) in 2D H9C2; experiment: Activity against T. cruzi (Y strain) infection of H9C2 monolayers (2D); format: cell-based, Trypanosoma cruzi; conditions: 10 µM, seven days of incubation, 95% confidence interval in brackets
Source text: (§1) L929 cell lines were used to evaluate the effect of the nucleoside derivatives on the cellular viability of mammalian host cells and to assess their activity against intracellular forms of T. cruzi (Tulahuen strain expressing E. coli β-galactosidase gene, DTU VI) as reported. 2D and 3D culture systems of rat cardiomyoblast cell lines (H9C2(2-1)) were used to evaluate cardiotoxicity and to test the derivatives’ activity on intracellular forms (Y strain, DTU II). In all assays, the cell cultures were maintained at 37 °C under an atmosphere of 5% CO2.
(§2) Bloodstream trypomastigotes of the Y strain (DTU II) were obtained by cardiac puncture of infected Swiss Webster mice on the parasitemia peak to perform drug sensitivity assays. Trypomastigote forms of the Tulahuen-β gal strain were collected from the supernatant of previously infected L929 cell cultures (host/parasite cell ratio 10:1). The intracellular forms T. cruzi were studied by the infection of L929 and H9C2 (2D and 3D) cell cultures infected for 48 and 24 h with trypomastigotes of Tulahuen-β gal and Y strains, respectively. The Leishmania mexicana-Cas9 T7 strain (LmexCas9) was derived from L. mexicana WT promastigotes by expression of the Streptococcus pyogenes Cas9 nuclease gene ‘Cas9′ and maintained on 32 μg/mL hygromycin [51]. This strain and the derived strains Cas9^ΔNT1 and Cas9^ΔNT1+TcrNT2 were cultured in HOMEM medium supplemented with 10% of FBS and 1% Penicillin-Streptomycin antibiotic in unvented flasks at 25 °C [52]. The Cas9^ΔNT1 strain is identical to Cas9 except that the LmexNT1.1/NT1.2 locus encoding the L. mexicana adenosine/ pyrimidine transporters was excised using Cas9 [17, 40]. Cas9^ΔNT1+TcrNT2 is the further modification of that strain by the expression of the T. cruzi nucleoside transporter 2 (TcrNT2) gene in it, using the vector pNUS-HcN [53]. Appropriate antibiotics were added for the selection and maintenance of transfectants.
In an initial step, nucleoside derivatives were assayed against intracellular forms of Tulahuen-β gal strain in L929 cell lines. Assays were performed in sterile 96-well microtiter plates with 4 × 10^3 cells/well and 4 × 10^4 parasites/well (host/parasite cell ratio 1:10). […] Parasite burden was analyzed by adding the substrate CPRG (chlorophenol red ß-D-galactopyranoside) followed by measurements (spectrophotometrically) at 570 nm. The results were expressed as percentage of reduction in parasite growth compared to untreated cells, and EC50 values were calculated. […] After seven days of treatment, the cultures were fixed, stained with Giemsa, and 200 cells were quantified by light microscopy. The results were expressed as % of reduction in parasite burden. […]

[2] = tested on: H9C2 3D cultures; experiment: Cardiotoxicity on H9C2 organoids (3D), PrestoBlue; format: cell-based, rat; conditions: 95% confidence interval in brackets
Source text: as §1
L929 cells seeded in sterile 96-well microtiter plates were exposed or not to increasing concentrations (up to 200 µM) of the compounds. After seven days of incubation, the cell growth of treated cultures was compared to untreated control cells (100% cell growth). Cellular viability was assessed through AlamarBlue® (resazurin sodium salt) colorimetric assay, and the results were expressed as % reduction in cell growth/viability compared to untreated control, and an IC50 value determined. For the assays using H9C2 cultures, 25 × 10^3 cells/well were seeded in a 96-well microtiter plates (flat and U bottoms, precoated with agarose 1% for preparing 2- and 3D matrices, respectively) and maintained at 37 °C [48, 54].
The cardiac cultures were exposed or not to increasing concentrations of the nucleoside derivatives (up to 300 µM), and after seven days of incubation, their physiology and morphology was evaluated by light microscopy. Cell viability was measured using the PrestoBlue® (PB) colorimetric assay, the results evaluated as % reduction in cell growth/viability compared to untreated control, and an IC50 value determined. The data results from at least two independent experiments done in at least duplicates.

[3] = tested on: intracellular forms of T. cruzi (Tulahuen strain); experiment: Activity against intracellular forms of T. cruzi (Tulahuen-β gal strain) in L929 cultures, CPRG readout; format: cell-based; conditions: Trypanosoma cruzi, 168 h; Tulahuen strain in L929, seven days of compound incubation; 95% confidence interval in brackets
Source text: as §1, §2
In an initial step, nucleoside derivatives were assayed against intracellular forms of Tulahuen-β gal strain in L929 cell lines. Assays were performed in sterile 96-well microtiter plates with 4 × 10^3 cells/well and 4 × 10^4 parasites/well (host/parasite cell ratio 1:10). After the establishment of infection (48 h), increasing concentrations (up to 30 µM) of the compounds were added, and the cultures maintained at 37 °C for seven days. Untreated-infected controls represented 100% growth. Parasite burden was analyzed by adding the substrate CPRG (chlorophenol red ß-D-galactopyranoside) followed by measurements (spectrophotometrically) at 570 nm. The results were expressed as percentage of reduction in parasite growth compared to untreated cells, and EC50 values were calculated. Bz was used as a positive control. To investigate the effect of the compounds against intracellular forms of the Y strain, rat cardiomyoblasts (2D cultures of H9C2) were seeded in 24-well plates and, after 24 h of platting, were infected with bloodstream trypomastigotes (20 parasites per host cell). After 24 h of interaction, the infected cultures were rinsed to remove non-internalized parasites and incubated with 10 µM of the tested compounds. After seven days of treatment, the cultures were fixed, stained with Giemsa, and 200 cells were quantified by light microscopy. The results were expressed as % of reduction in parasite burden. The data results from two independent experiments performed in at least duplicate were obtained.

[4] = tested on: bloodstream trypomastigotes of T. cruzi (Y strain); experiment: Activity against bloodstream trypomastigotes, light microscopy counting; format: cell-based; conditions: Trypanosoma cruzi, 24 h of compound incubation, 95% confidence interval in brackets; for EC50: read-out: Activity upon Bloodstream Forms EC50; for EC90: read-out: Activity upon Bloodstream Forms EC90
Procedure: as §2
To analyze the compound activity against bloodstream trypomastigotes of T. cruzi (Y strain), […] of parasite were added in 96-well microtiter plates and incubated for 2 or for 24 h at 37 °C in RPMI culture medium in the presence or absence of each compound (up to 30 µM). The death rates were quantified by light microscopy using a Neubauer chamber to determine the EC50 [49, 58]. The data results from two independent experiments performed in duplicate were obtained.

[5] = tested on: promastigotes of LmexCas9; experiment: Resazurin-based assay on LmexCas9 promastigotes; format: cell-based, Leishmania mexicana
Procedure: as §2
The EC50 values for nucleoside analogues against Leishmania mexicana promastigotes of the Cas9, Cas9^ΔNT1 and Cas9^ΔNT1+TcrNT2 strains used a resazurin-based assay, as described. Briefly, the assays were performed in standard HOMEM medium and culture conditions, in white opaque 96-well plates. For each test compound (stored as a 40 mM stock solution in 100% DMSO at −20 °C), a doubling dilution was performed over 2 rows of the plate, keeping the last well free as no-drug control with HOMEM only (23 doubling dilutions; highest concentration 100 µM). To each well, 100 µL of HOMEM containing 2 × 10^5 cells of the appropriate L. mexicana line was added, and the plates incubated for 72 h at 25 °C, followed by the addition of 20 µL of resazurin solution and further incubation for 48 h. Fluorescence was read on a FLUOstar OPTIMA plate reader (BMG Labtech, Germany), at an excitation wavelength of 544 nm and an emission wavelength of 620 nm. The EC50 values were determined by the GraphPad Prism 8.0 software using an equation for a sigmoid curve with variable slope. Pentamidine was used as positive control, and every experiment was independently performed at least 3 times independently.

[6] = Rattus norvegicus, H9c2, 168 h, read-out: Cardiotoxic profile IC50 (µM) 3D, 3D H9C2, seven days of compound incubation
[7] = Leishmania mexicana, read-out: Cas9 EC50 (μM), promastigotes, resazurin-based assay, highest concentration 100 µM
[8] = read-out: Cardiotoxic profile IC50 (µM) 3D, 3D H9C2, seven days of compound incubation

Compound | % of Death Rate by Light Microscopy Quantification 2D [1] | IC50 [2, 6] [µM] | EC50 [3] [µM] | EC90 [3] [µM] | EC50 [4] [µM] | EC90 [4] [µM] | EC50 [5, 7] [µM] | EC50 ([5]; read-out: Cas9 EC50, promastigotes, resazurin-based assay, highest concentration 100 µM) [µM] | IC50 [2, 8] [µM]
O=C(Cn1ccnc1[N+](=O)[O-])NCc1ccccc1 [Bz, Benznidazole, reference compound] | 100% | > 200 | 1.97 | 5.54 | 6.9 | 19.6 |  |  | 
Nc1ncnc2c1c(-c1ccc(Cl)c(Cl)c1)cn2[C@@H]1O[C@H](CO)C[C@H]1O [FH8513, 7-(3,4-dichlorophenyl)-3′-deoxytubercidin] | 99.14 (97.9 to 100) % | 199 | 0.2 | 1.61 | 5.9 | 16.7 | ~100 | > 100 | 200
Nc1ncnc2c1c(-c1ccc(Cl)c(F)c1)cn2[C@@H]1O[C@H](CO)[C@@H](O)[C@H]1O [FH10714, 7-(3-fluoro,4-chlorophenyl)tubercidin] | 100% | 180 | 0.47 | 6.19 | 13.4 | > 30 | > 100 |  | 181
Nc1ncnc2c1c(-c1ccc(F)c(F)c1)cn2[C@@H]1O[C@H](CO)[C@@H](O)[C@H]1O [FH11706, 7-(3,4-Difluorophenyl)tubercidin] | 99.25 (98.83 to 99.67) % | > 200 | 1.11 | > 30 | 17.6 | > 30 | > 100 |  | 
